Test results: patent USRE30241E, “Esters of 3-(hydroxy or hydroxymethyl)-4-hydroxyphenyl aminomethyl ketones” (Sterling Drug Inc., priority 1970, dated 1980)
Where two headings read alike, the source gives them in different places.

Assays:
[1] = test system: guinea pig bronchioles constricted by carbachol; test: Bronchodilator Test Method II, in vitro perfused guinea pig lung; settings: for ED50: carbachol (Doryl) 1:5 million
Description: In this method bronchodilator activity in vitro was determined by testing the effect of graded doses of the test compounds on guinea pig bronchioles constricted by carbachol, using the technique reported by Sollman and von Oettingen, Proc. Soc, Exp. Biol. Med., 25,692 (1928) as modified by Tainter, Pedden, and James, J. Pharm. Exp. Ther., 51, 371 (1934) and by Luduena, von Euler, Tullar, and Lands, Arch. intern. Pharmacol., III, 392 (1957).

[2] = Solubility and pH of salts; settings: for solubility: water
[3] = test system: carbachol- or histamine-induced bronchoconstriction; test: Bronchodilator Test Method I, anesthetized dog, intravenous activity; type: in vivo; settings: Canis lupus familiaris, read-out: Bronchodilatation; for inhibition in vivo at 0.0285 mg/kg: 28.5 mcg/kg i.v.; for inhibition in vivo at 0.114 mg/kg: 114 mcg/kg i.v.; for inhibition in vivo at 0.228 mg/kg: 228 mcg/kg i.v.; for inhibition in vivo at 0.0056 mg/kg: 5.6 mcg/kg i.v.; for inhibition in vivo at 0.0112 mg/kg: 11.2 mcg/kg i.v.; for inhibition in vivo at 0.112 mg/kg: 112.0 mcg/kg i.v.; for inhibition in vivo at 0.0224 mg/kg: 22.4 mcg/kg i.v.
In short: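 Pentobarbital-anesthetized (30 mg/kg i.v.), open-chest, artificially ventilated dogs were given i.v. carbachol (4-6 µg/kg) or histamine diphosphate (35-45 µg/kg). Test compound was given i.v. mixed with, after, or 1-10 min before the constrictor.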

diastolic blood pressure = test: Effect on diastolic blood pressure in the anesthetized dog; type: in vivo
Description: The effect of a rapid intravenous injection on the heart rate the heart rate was conducted in anesthetized dogs under normal respiration. A few open-chest dogs were also tested. Increase in heart rate was measured by using an electrocardiograph attached to the dog. Readings were taken every 0.5-1 minute for the first 10 minutes and every 2-5 minutes thereafter until recovery. In some cases, several doses and more than one compound were tested alternately in the same dog. The blood pressure effect was simultaneously recorded.

heart rate = test: Cardiovascular studies: effect on the heart rate in the anesthetized dog; type: in vivo
In short: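 Anesthetized dogs, mostly spontaneously breathing, some open-chest, given rapid intravenous injections. Heart rate by electrocardiograph with blood pressure recorded simultaneously, every 0.5-1 minute for 10 minutes then every 2-5 minutes until recovery; several doses or compounds sometimes tested alternately in one dog.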

[4] = test system: carbachol- or histamine-induced bronchoconstriction; test: Bronchodilator Test Method I, anesthetized dog, intraduodenal activity; type: in vivo; settings: Canis lupus familiaris, read-out: Bronchodilation; for inhibition in vivo at 0.03 mg/kg: 30 mcg/kg (salt) intraduodenal; for inhibition in vivo at 0.12 mg/kg: 120 mcg/kg (salt) intraduodenal
In short: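 Pentobarbital-anesthetized (30 mg/kg i.v.) open-chest dogs of 9-18 kg, artificially ventilated; airway pressure recorded via tracheal cannula transducer. Test solution injected intraduodenally; from 5 min, i.v. carbachol (4-6 μg/kg) or histamine diphosphate (35-45 μg/kg) challenges every 30-60 min gauged degree and duration of bronchodilation.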

**Q.** With `CC(C)(C)CC(=O)Oc1ccc(C(O)CNC(C)(C)C)cc1OC(=O)CC(C)(C)C.Cl` (stereo not drawn) [Example 7, 3,4-bis(3,3-dimethylbutanoyloxy)-alpha-(tert-butylaminomethyl)benzyl alcohol hydrochloride] as the molecule, how does the ED50 [1] read?
**A.** 23 µg (base)

**Q.** And the “Duration, Mean” value ([1]; dose 32 mcg (base))?
**A.** 85 ± 17 min

**Q.** What about the solubility [2] of the same molecule?
**A.** ≥ 10 mg/mL

**Q.** What about the inhibition in vivo at 0.0285 mg/kg ([3]; 5 min, 5 min) of the same molecule?
**A.** 28%

**Q.** And the inhibition in vivo at 0.114 mg/kg ([3]; 5 min, 5 min)?
**A.** 52%

**Q.** What about the inhibition in vivo at 0.228 mg/kg ([3]; 5 min, 5 min) of the same molecule?
**A.** 98%

**Q.** And the inhibition in vivo at 0.0285 mg/kg ([3]; 0.5 h, 30 min)?
**A.** 32%

**Q.** And the inhibition in vivo at 0.114 mg/kg ([3]; 0.5 h, 30 min)?
**A.** 42%

**Q.** And the inhibition in vivo at 0.228 mg/kg ([3]; 0.5 h, 30 min)?
**A.** 77%

**Q.** What about the inhibition in vivo at 0.0285 mg/kg ([3]; 1 h, 60 min) of the same molecule?
**A.** 24%

**Q.** And the inhibition in vivo at 0.114 mg/kg ([3]; 1 h, 60 min)?
**A.** 33%

**Q.** And the inhibition in vivo at 0.228 mg/kg ([3]; 1 h, 60 min)?
**A.** 68%

**Q.** And the inhibition in vivo at 0.0285 mg/kg ([3]; 2 h, 120 min)?
**A.** 24%

**Q.** And the inhibition in vivo at 0.114 mg/kg ([3]; 2 h, 120 min)?
**A.** 25%

**Q.** And the inhibition in vivo at 0.228 mg/kg ([3]; 2 h, 120 min)?
**A.** 56%

**Q.** What about the inhibition in vivo at 0.0285 mg/kg ([3]; 3 h, 180 min) of the same molecule?
**A.** 22%

**Q.** What about the inhibition in vivo at 0.114 mg/kg ([3]; 3 h, 180 min) of the same molecule?
**A.** 19%

**Q.** And the inhibition in vivo at 0.228 mg/kg ([3]; 3 h, 180 min)?
**A.** 50%

**Q.** What about the inhibition in vivo at 0.0285 mg/kg ([3]; 4 h, 240 min) of the same molecule?
**A.** 23%

**Q.** And the inhibition in vivo at 0.228 mg/kg ([3]; 4 h, 240 min)?
**A.** 44%

**Q.** Which ED50 ([1]; hydrochloride) does the source give for `CC(C)(C)NCC(O)c1ccc(OC(=O)C(C)(C)C)c(OC(=O)C(C)(C)C)c1.Cl` (stereo not drawn) [Example 5, 3,4-bis(pivalyloxy)-alpha-(tert-butylaminomethyl)benzyl alcohol hydrochloride] here?
**A.** 0.94 µg (base)

**Q.** And the “Duration, Mean” value ([1]; dose 2 mcg (base))?
**A.** 18 ± 4.2 min

**Q.** And the solubility [2]?
**A.** ≥ 50 mg/mL

**Q.** What about the inhibition in vivo at 0.0028 mg/kg ([3]; 5 min, 2.8 mcg/kg i.v., 5 min) of the same molecule?
**A.** 14%

**Q.** And the inhibition in vivo at 0.0056 mg/kg ([3]; 5 min, 5 min)?
**A.** 53%

**Q.** And the inhibition in vivo at 0.0112 mg/kg ([3]; 5 min, 5 min)?
**A.** 57%

**Q.** What about the inhibition in vivo at 0.112 mg/kg ([3]; 5 min, 5 min) of the same molecule?
**A.** 100%

**Q.** And the inhibition in vivo at 0.0056 mg/kg ([3]; 0.5 h, 30 min)?
**A.** 27%

**Q.** What about the inhibition in vivo at 0.0112 mg/kg ([3]; 0.5 h, 30 min) of the same molecule?
**A.** 30%

**Q.** What about the inhibition in vivo at 0.0224 mg/kg ([3]; 0.5 h, 30 min) of the same molecule?
**A.** 81%

**Q.** And the inhibition in vivo at 0.112 mg/kg ([3]; 0.5 h, 30 min)?
**A.** 92%

**Q.** What about the inhibition in vivo at 0.0056 mg/kg ([3]; 1 h, 60 min) of the same molecule?
**A.** 26%

**Q.** What about the inhibition in vivo at 0.0112 mg/kg ([3]; 1 h, 60 min) of the same molecule?
**A.** 4%

**Q.** What about the inhibition in vivo at 0.0224 mg/kg ([3]; 1 h, 60 min) of the same molecule?
**A.** 62%

**Q.** What about the inhibition in vivo at 0.112 mg/kg ([3]; 1 h, 60 min) of the same molecule?
**A.** 59%

**Q.** And the inhibition in vivo at 0.0224 mg/kg ([3]; 2 h, 120 min)?
**A.** 62%

**Q.** What about the inhibition in vivo at 0.112 mg/kg ([3]; 2 h, 120 min) of the same molecule?
**A.** 13%

**Q.** What about the inhibition in vivo at 0.0224 mg/kg ([3]; 3 h, 180 min) of the same molecule?
**A.** 15%

**Q.** What about the inhibition in vivo at 0.0224 mg/kg ([3]; 4 h, 240 min) of the same molecule?
**A.** 0%

**Q.** Which ED50 [1] does the source give for `CC(C)CC(=O)Oc1ccc(C(O)CNC(C)(C)C)cc1OC(=O)CC(C)C.Cl` (stereo not drawn) [Example 3, 3,4-bis(isovaleryloxy)-alpha-(tert-butylaminomethyl)-benzyl alcohol hydrochloride] here?
**A.** 0.6 µg (base)

**Q.** What about the “Duration, Mean” value ([1]; dose 1.2 mcg (base)) of the same molecule?
**A.** 18 ± 4 min

**Q.** What about the “pH of a 1 percent aqueous solution” value ([2]; 1 percent aqueous solution of the salt) of the same molecule?
**A.** 5.4

**Q.** What about the “precipitation on raising pH to 7.0” value ([2]; 1 percent aqueous solution, N/10 sodium hydroxide to pH 7.0) of the same molecule?
**A.** a precipitate formed

**Q.** What about the solubility [2] of the same molecule?
**A.** ≥ 200 mg/mL

**Q.** And the inhibition in vivo at 0.00055 mg/kg ([3]; 1 min, 0.55 mcg/kg i.v., 1-2 min)?
**A.** 32%

**Q.** What about the inhibition in vivo at 0.0011 mg/kg ([3]; 1 min, 1.1 mcg/kg i.v., 1-2 min) of the same molecule?
**A.** 54%

**Q.** And the inhibition in vivo at 0.0022 mg/kg ([3]; 1 min, 2.2 mcg/kg i.v., 1-2 min)?
**A.** 74%

**Q.** Which results are given for `CC(C)NCC(O)c1ccc(O)c(O)c1` (stereo not drawn) [Ref. Cpd. II, 3,4-Dihydroxy-alpha-(isopropylaminomethyl)benzyl alcohol, reference compound]?
**A.** Mean Decrease in Diastolic Blood Pressure (diastolic blood pressure; 0.15 meg/kg (salt) i.v.): 12%; Mean Decrease in Diastolic Blood Pressure (diastolic blood pressure; 0.3 meg/kg (salt) i.v.): 32%; Mean Decrease in Diastolic Blood Pressure (diastolic blood pressure; 0.6 meg/kg (salt) i.v.): 40%; Mean Maximal Increase in the Heart Rate (heart rate; 0.15 mcg/kg (salt) i.v.): 26%; Mean Maximal Increase in the Heart Rate (heart rate; 0.3 mcg/kg (salt) i.v.): 35%; Mean Maximal Increase in the Heart Rate (heart rate; 0.6 mcg/kg (salt) i.v.): 50%; Duration, Mean ([1]; dose 0.75 mcg (base)): 5 min; inhibition in vivo at 0.03 mg/kg ([4]; 10 min, 10 min): 9%; inhibition in vivo at 0.12 mg/kg ([4]; 10 min, 10 min): 28%; inhibition in vivo at 0.03 mg/kg ([4]; 0.5 h, 30 min): 5%; inhibition in vivo at 0.12 mg/kg ([4]; 0.5 h, 30 min): 5%; inhibition in vivo at 0.03 mg/kg ([4]; 1 h, 60 min): 0%; inhibition in vivo at 0.12 mg/kg ([4]; 1 h, 60 min): 19%; inhibition in vivo at 0.0003 mg/kg ([3]; 1 min, 0.3 mcg/kg i.v., 1-2 min): 23%; inhibition in vivo at 0.0006 mg/kg ([3]; 1 min, 0.6 mcg/kg i.v., 1-2 min): 35%; inhibition in vivo at 0.0012 mg/kg ([3]; 1 min, 1.2 mcg/kg i.v., 1-2 min): 55%
